From publication PMC6677754, “In silico design and optimization of selective membranolytic anticancer peptides” (Scientific Reports, 2019) come the findings set out here.

In assay [1] the test system is A549 lung adenocarcinoma cell line. Nature of the assay: Cell viability assay (MTT). The assay is classed as cell-based, human. The note with it: MTT, 10^4 cells per well, 24 h with peptide, 2-fold dilution series from 100 µM in DMEM, absorbance 540 nm; mean ± std, N = 3; read-out: A549 EC50/µM. The procedure:
(§1) 10% fetal bovine serum and 1% penicillin-streptomycin (Thermo Fisher Scientific, Waltham, MA, USA). The cultures were kept at 37°C in a 5% CO2 atmosphere incubator (Thermo Fisher Scientific, Waltham, MA, USA) and split every two to three days to new culture flasks. Cells no older than 20 passages were used for experiments.
(§2) For splitting, the cell culture media was aspirated, the cells were washed with 0.01 M phosphate buffered saline (PBS, Gibco, Thermo Fisher Scientific, Waltham, MA, USA) and trypsin-EDTA (trypsin - ethylene diamine tetraacetic acid, Fisher scientific, UK) was added to the cell layer to detach them from the flask surface. After incubation for 2 min at 37°C, cells were resuspended with an equal volume of DMEM media and centrifuged at 310 g for 5 min at 4°C. After removal of the supernatant the cells were resuspended in DMEM cell media and split into new cell culture flasks at a 1/3 to 1/5 ratio.
(§3) Determination of the anticancer peptides half effective concentration (EC50) was performed by a 3-(4,5-dimethylthiazol-2-yl)-2,5-diphenyltetrazolium bromide (MTT) assay, as described elsewhere21. Briefly, […] were seeded in each well of a 96-well plate and left to adhere and […]
(§4) sulfoxide (DMSO, Fisher Scientific, UK) at an intermediate concentration of 1 mM. The peptides were then diluted in a 2-fold dilution series starting at 100 μM with DMEM culture media. Cells were incubated with the peptide solutions for 24 h. After this time, the cell media was removed and the cells were incubated for 1 h with a 0.5 mg mL−1 MTT solution to allow enough time for formazan crystal formation (Sigma Aldrich, Steinheim, Germany). The supernatant was removed and 100 μL of DMSO were added into each well to resuspend the formazan crystals.
(§5) After manually shaking the plates to completely dissolve the crystals, the absorbance was measured at 540 nm in a Tecan Infinity M1000 spectrophotometer. The cell viability was determined based on the quantification of the color intensity in each culture well, considering the absorbance obtained by the control media without peptides as a 100% survival. The resultant sigmoidal curves were analyzed with the drc22 R package using a log-logistic model

Assay [2] has as its system MCF7 breast adenocarcinoma cell line. The assay can be described thus: Cell viability assay (MTT). The assay is classed as cell-based, human. The note with it: 10^4 cells per well, 24 h with peptide, 2-fold dilution series from 100 µM in DMEM, absorbance 540 nm, mean ± std, N = 3. The procedure: as §1, §2, §3, §4, §5

Peptide text beside a SMILES is read from it.

For the molecule `CC[C@H](C)[C@H](NC(=O)[C@H](Cc1c[nH]c2ccccc12)NC(=O)[C@H](CCCNC(=N)N)NC(=O)[C@H](CCCNC(=N)N)NC(=O)[C@H](CC(C)C)NC(=O)[C@H](Cc1c[nH]c2ccccc12)NC(=O)[C@H](CC(N)=O)NC(=O)[C@H](Cc1c[nH]cn1)NC(=O)[C@@H](NC(=O)[C@H](CCCCN)NC(=O)[C@H](CCCCN)NC(=O)[C@@H](NC(=O)[C@H](Cc1c[nH]c2ccccc12)NC(=O)[C@@H](N)CCCCN)C(C)C)C(C)C)C(=O)N[C@@H](CCCCN)C(=O)N[C@H](C(=O)N[C@@H](Cc1ccccc1)C(=O)N[C@@H](CCC(=O)O)C(=O)N[C@@H](C)C(=O)N[C@@H](CC(C)C)C(=O)N[C@@H](Cc1ccccc1)C(=O)NCC(N)=O)C(C)C` [AmphiArc1] (H-KWVKKVHNWLRRWIKVFEALFG-NH2), the figures for the EC50 in assay [1] and in assay [2] were 18.4 ± 0.7 µM and 7 ± 0.5 µM, respectively.
For `CC[C@H](C)[C@H](NC(=O)[C@H](Cc1ccc(O)cc1)NC(=O)[C@H](CC(N)=O)NC(=O)[C@H](CC(C)C)NC(=O)[C@H](CCC(=O)O)NC(=O)[C@H](CCC(=O)O)NC(=O)[C@H](CCCCN)NC(=O)[C@@H](NC(=O)[C@H](CO)NC(=O)[C@H](Cc1c[nH]cn1)NC(=O)[C@H](CCCNC(=N)N)NC(=O)[C@H](Cc1ccccc1)NC(=O)[C@H](C)N)C(C)C)C(=O)N[C@@H](CCCNC(=N)N)C(=O)N[C@@H](CCCNC(=N)N)C(=O)N[C@@H](CCCNC(=N)N)C(=O)N[C@@H](CC(C)C)C(=O)N[C@@H](CCC(=O)O)C(=O)N[C@@H](CCCNC(=N)N)C(=O)N[C@@H](Cc1ccccc1)C(=O)N1CCC[C@H]1C(=O)N[C@@H](CC(N)=O)C(=O)N[C@@H](CCCNC(=N)N)C(=O)N[C@@H](CC(C)C)C(N)=O` [AmphiArc3] (H-AFRHSVKEELNYIRRRLERFPNRL-NH2; N-terminus assumed), in that order: greater than 50 µM and greater than 50 µM.
For `CC[C@H](C)[C@H](NC(=O)[C@H](CO)NC(=O)[C@H](CCC(N)=O)NC(=O)[C@H](CC(C)C)NC(=O)[C@H](CCCNC(=N)N)NC(=O)[C@H](CCCCN)NC(=O)[C@H](CCCNC(=N)N)NC(=O)[C@H](CC(C)C)NC(=O)CNC(=O)[C@H](CC(N)=O)NC(=O)[C@H](CCC(=O)O)NC(=O)[C@@H](NC(=O)[C@@H](N)CCCNC(=N)N)[C@@H](C)CC)C(=O)N[C@@H](Cc1ccc(O)cc1)C(=O)N[C@@H](CCCNC(=N)N)C(=O)N[C@@H](Cc1c[nH]cn1)C(=O)N[C@@H](CC(C)C)C(=O)N[C@@H](CCC(=O)O)C(=O)N[C@@H](CCC(=O)O)C(N)=O` [AmphiArc4] (H-RIENGLRKRLQSIYRHLEE-NH2; N-terminus assumed), in that order: greater than 50 µM and greater than 50 µM.
For `CC[C@H](C)[C@H](NC(=O)[C@H](Cc1c[nH]c2ccccc12)NC(=O)[C@@H](NC(=O)[C@H](CCCNC(=N)N)NC(=O)[C@@H](NC(=O)[C@H](Cc1c[nH]c2ccccc12)NC(=O)[C@@H](N)CCCCN)C(C)C)[C@@H](C)CC)C(=O)N[C@@H](CCCCN)C(=O)N[C@H](C(=O)N[C@@H](CC(C)C)C(=O)N[C@@H](CCCNC(=N)N)C(=O)NCC(=O)N[C@@H](CC(C)C)C(=O)N[C@@H](Cc1ccccc1)C(=O)N[C@H](C(=O)N[C@@H](Cc1c[nH]c2ccccc12)C(=O)N[C@H](C(=O)N[C@@H](Cc1c[nH]c2ccccc12)C(=O)N[C@@H](Cc1ccccc1)C(=O)N[C@@H](Cc1ccccc1)C(N)=O)C(C)C)C(C)C)C(C)C` [Gradient1] (H-KWVRIWIKVLRGLFVWVWFF-NH2; N-terminus assumed), the EC50 in assay [1] and in assay [2] was greater than 50 µM in each case.
